Among the data in patent US9890147B2 (BAYER PHARMA AKTIENGESELLSCHAFT, priority 2012, dated 2018) are IC50 values, retold here.

In one test the test system is MOLM-13 cells. As to the kind of experiment: Cell proliferation assay (alamarBlue), MOLM-13. It counts as cell-based. The conditions noted are these: Homo sapiens, 96 hours incubation, inhibition of cell proliferation. The method, boiled down:
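IC50 = concentration giving 50% growth inhibition relative to buffer-treated cells, after subtracting baseline fluorescence taken before dosing. Compound applied at 1E-5 to 1E-8 M for 96 h at 37 °C in RPMI1640 with 10% FCS; alamarBlue signal at 530/590 nm.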

The next test has as its target T1, BRD4 (BD1) (Homo sapiens, UniProt O60885).
T1 construct: with relatively long constructs also being possible, preferably amino acids 44-168; made in house; host or cells: E. coli
Description: Binding assay BRD4/acetylated peptide H4 (TR-FRET protein-protein interaction assay). The method, boiled down:
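Displacement of biotin-Ac-H4 peptide from His6-tagged BRD4(BD1), final usually 10 nM, read as Eu-streptavidin to anti-His-XL665 TR-FRET (665/620 nm). Compounds tested at 11 doses up to 20 μM in duplicate, pH 7.5 HEPES, 22 °C then 4 °C incubation; IC50 by 4-parameter regression.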
For orientation: In TR-FRET formats the signal depends on donor and acceptor labels being close together.

What is called IC50 is the concentration at which inhibition is half-maximal. Read a high IC50 as weaker potency. `CNC(=O)N1N=C(c2ccc(-c3ccc([N+](=O)[O-])cc3)cc2)c2cc(OC)c(OC)cc2CC1C` (racemic) [Example 102, (±)-7,8-dimethoxy-N,4-dimethyl-1-(4′-nitrobiphenyl-4-yl)-4,5-dihydro-3H-2,3-benzodiazepine-3-carboxamide]: the IC50 in the test with MOLM-13 cells was 0.96 µM; at BRD4 (BD1), 0.09 µM.

In the case of `CNC(=O)N1N=C(c2ccc(-c3cccnc3)cc2)c2cc(OC)c(OC)cc2CC1C` (racemic) [Example 103, (±)-7,8-dimethoxy-N,4-dimethyl-1-[4-(pyridin-3-yl)phenyl]-4,5-dihydro-3H-2,3-benzodiazepine-3-carboxamide], the IC50 in the test with MOLM-13 cells came to 0.35 µM; on BRD4 (BD1), 0.04 µM.

`CNC(=O)N1N=C(c2ccc(-c3cnccc3OC)cc2)c2cc(OC)c(OC)cc2CC1C` (racemic) [Example 104, (±)-7,8-dimethoxy-1-[4-(4-methoxypyridin-3-yl)phenyl]-N,4-dimethyl-4,5-dihydro-3H-2,3-benzodiazepine-3-carboxamide]: the values for the IC50 in the test with MOLM-13 cells and at BRD4 (BD1) were 0.26 µM and 0.03 µM, respectively.

In the case of `CNC(=O)N1N=C(c2ccc(-c3cccc(C#N)c3)cc2)c2cc(OC)c(OC)cc2CC1C` (racemic) [Example 105, (±)-1-(3′-cyanobiphenyl-4-yl)-7,8-dimethoxy-N,4-dimethyl-4,5-dihydro-3H-2,3-benzodiazepine-3-carboxamide], the IC50 with MOLM-13 cells was 0.67 µM; on BRD4 (BD1) it was 0.08 µM.

`CNC(=O)N1N=C(c2ccc(-c3ccc(C#N)cc3)cc2)c2cc(OC)c(OC)cc2CC1C` (racemic) [Example 106, (±)-1-(4′-cyanobiphenyl-4-yl)-7,8-dimethoxy-N,4-dimethyl-4,5-dihydro-3H-2,3-benzodiazepine-3-carboxamide]: the IC50 was found to be 2.55 µM in the test on MOLM-13 cells and 0.09 µM on BRD4 (BD1).

On to `CNC(=O)N1N=C(c2ccc(-c3ccccc3OC(F)(F)F)cc2)c2cc(OC)c(OC)cc2CC1C` (racemic) [Example 107, (±)-7,8-dimethoxy-N,4-dimethyl-1-[2′-(trifluoromethoxy)biphenyl-4-yl]-4,5-dihydro-3H-2,3-benzodiazepine-3-carboxamide], for which the IC50 worked out at 0.63 µM with MOLM-13 cells and 0.26 µM on BRD4 (BD1).

As to `CNC(=O)N1N=C(c2ccc(-c3ccc(S(C)(=O)=O)cc3)cc2)c2cc(OC)c(OC)cc2CC1C` (racemic) [Example 108, (±)-7,8-dimethoxy-N,4-dimethyl-1-[4′-(methylsulphonyl)biphenyl-4-yl]-4,5-dihydro-3H-2,3-benzodiazepine-3-carboxamide], the IC50 came to 1.56 µM with MOLM-13 cells and 0.06 µM at BRD4 (BD1).

Take `CNC(=O)N1N=C(c2ccc(-c3ccccc3C#N)cc2)c2cc(OC)c(OC)cc2CC1C` (racemic) [Example 109, (±)-1-(2′-cyanobiphenyl-4-yl)-7,8-dimethoxy-N,4-dimethyl-4,5-dihydro-3H-2,3-benzodiazepine-3-carboxamide]: the IC50 in the test with MOLM-13 cells amounted to 1.16 µM; on BRD4 (BD1) it was 0.05 µM.

In the case of `CNC(=O)N1N=C(c2ccc(-c3ccc(N4CCOCC4)cc3)cc2)c2cc(OC)c(OC)cc2CC1C` (racemic) [Example 110, (±)-7,8-dimethoxy-N,4-dimethyl-1-[4′-(morpholin-4-yl)biphenyl-4-yl]-4,5-dihydro-3H-2,3-benzodiazepine-3-carboxamide], the figures for the IC50 in the test with MOLM-13 cells and on BRD4 (BD1) were 0.36 µM and 0.06 µM, respectively.

`CNC(=O)N1N=C(c2ccc(-c3cncnc3)cc2)c2cc(OC)c(OC)cc2CC1C` (racemic) [Example 111, (±)-7,8-dimethoxy-N,4-dimethyl-1-[4-(pyrimidin-5-yl)phenyl]-4,5-dihydro-3H-2,3-benzodiazepine-3-carboxamide]: the IC50 was determined as 0.81 µM in the test on MOLM-13 cells and 0.08 µM on BRD4 (BD1).

With `CNC(=O)N1N=C(c2ccc(-c3ccccc3CO)cc2)c2cc(OC)c(OC)cc2CC1C` (racemic) [Example 112, (±)-1-[2′-(hydroxymethyl)biphenyl-4-yl]-7,8-dimethoxy-N,4-dimethyl-4,5-dihydro-3H-2,3-benzodiazepine-3-carboxamide], the figures for the IC50 with MOLM-13 cells and on BRD4 (BD1) were 0.63 µM and 0.08 µM, respectively.
